{"source": "patent US20180015017A1", "about": "“USE OF GLUCOSYLGLYCEROL” (Bitop AG, priority 2008, published 2018)", "key": {"SOD-2": {"system": "SOD-2", "test": "Expression of SOD-2 mRNA in fibroblasts (33P-labeled cDNA chip, phosphor imaging)", "type": "cell-based, human", "conditions": "for Upregulation of SOD-2: relative amount of hybridized targets (radioactivity, phosphor imaging): NHDF fibroblasts, 1-% (w/w) aqueous solution", "protocol": "(§1) In these tests appropriate cell cultures were treated with a glucosylglycerol solution and the transcribed mRNA quantified. For this purpose the mRNA was first extracted to produce a ^33P labeled target with the help of a reverse transcriptase. Following this, these targets were applied to a cDNA chip and the radioactivity measured by means of the phosphor imaging method. The cDNA chip contained an array of the cDNAs of various proteins.\n(§2) The investigations were carried out with epidermal keratinocytes (NHEK, normal human epidermal keratinocytes) and dermal fibroblasts (NHDF, normal human dermal fibroblasts). In the case of the keratinocytes a 0.5-% (w/w) and in the case of the fibroblasts a 1-% (w/w) aqueous glucosylglycerol solution was used for the treatment.\nFibroblasts: DMEM (Invitrogen 21969035), blended with L-glutamine 2 mM (Invitrogen 25030024), Penicillin 50 Ul/ml/Streptomycin 50 μg/ml (Invitrogen 15070063), fetal calf serum 10% (FCS, Invitrogen 10270098).\n(§3) Culturing took place for a period of 24 and 96 hours. At the end of the incubation period the cells were washed with PBS solution (Invitrogen 14190094).\n(§4) The extraction of mRNA of each culture was achieved using TriReagent as per a standard protocol. The relevant cDNAs with ^33P-labeled targets was produced by reverse transcription of mRNA using [α^33P]-dATP and oligodT.\n(§5) The labeled cDNA targets were hybridized to the specific cDNA probes covalently fixed to minichips. After thorough washing the relative amount of the hybridized targets was determined by means of the phosphor imaging method. This analysis was performed by measuring the radioactivity by means of a “Cyclone” Phosphor Imager (Packard Instruments; 72 hours exposure time) and using the ImageQuant TL-Software (Amersham Biosiences)."}, "SOD-1": {"system": "SOD-1", "test": "Expression of SOD-1 mRNA in keratinocytes (33P-labeled cDNA chip, phosphor imaging)", "type": "cell-based, human", "conditions": "for Upregulation of the cytosolic SOD-1: relative amount of hybridized targets (radioactivity, phosphor imaging): NHEK keratinocytes, 0.5-% (w/w) aqueous solution; for increase of the expression of SOD-1: keratinocytes, 0.5-% glucosylglycerol solution", "protocol": "as §1, §2\nKeratinocytes: Keratinocyte-SFM (Invitrogen 17005-034) blended with epidermal growth factor (EGF) 0.25 ng/ml, pituitary extract (PE) 25 μg/ml (Invitrogen 3700015), Gentamycin […] (Sigma G1397).\nas §3, §4, §5"}}}
{"smiles": "OCC(CO)O[C@H]1O[C@H](CO)[C@@H](O)[C@H](O)[C@H]1O", "note": "[glucosylglycerol, 2-O-α-D-glucosylglycerol]", "values": [{"measurement": "Upregulation of SOD-2: relative amount of hybridized targets (radioactivity, phosphor imaging)", "setting": "SOD-2; 24 h, control 16.5", "value": 419}, {"measurement": "Upregulation of SOD-2: relative amount of hybridized targets (radioactivity, phosphor imaging)", "setting": "SOD-2; 96 h, control 9.1", "value": 313}, {"measurement": "higher expression of SOD-2", "setting": "SOD-2; fibroblasts, 1-% glucosylglycerol solution, within 24 hours", "value": 25.4, "unit": "times"}, {"measurement": "increase of expression of SOD-2", "setting": "SOD-2; fibroblasts, 1-% glucosylglycerol solution, within 96 hours", "value": 34.4, "unit": "fold"}, {"measurement": "Upregulation of the cytosolic SOD-1: relative amount of hybridized targets (radioactivity, phosphor imaging)", "setting": "SOD-1; 24 h, control 18.2", "value": 85}, {"measurement": "Upregulation of the cytosolic SOD-1: relative amount of hybridized targets (radioactivity, phosphor imaging)", "setting": "SOD-1; 96 h, control 9.3", "value": 182}, {"measurement": "increase of the expression of SOD-1", "setting": "SOD-1; within 24 hours", "value": 4.7, "unit": "times"}, {"measurement": "increase of the expression of SOD-1", "setting": "SOD-1; within 96 hours", "value": 19.6, "unit": "times"}]}
